Test system: African Green monkeys
Assay: IOP after intravitreal injection in African Green monkeys, PBS in the fellow eye as control
Assay type: in vivo, African Green monkey
Protocol: Eight African Green monkeys were screened to identify 4 animals with high-normal IOP. Animals were anesthetized with ketamine 10 mg/kg and Xylazine 0.5 mg/kg. Bimatoprost acid 100 ng in 50 μl was injected intravitreally in one eye through a 30-gauge syringe using a shelved technique, and 50 μl of phosphate buffered saline (PBS) was injected into the fellow eye as a concurrent control on days 0, 1, 2 at 8:30 pm. The bimatoprost acid dose was escalated to 200 ng in 100 μl, with the same volume of PBS given to the fellow eye, on days 3 (8:30 pm) and 4 (5:30 pm). IOP was measured with a Tonovet tonometer at 8:30 am, 11:30 am and 8:30 pm on day 1; 8:30 am, 11:30 am and 5:30 pm on day 4; and at 8:30 am on days 2, 3 and 5. The person measuring the IOP was masked to treatment assignment. Slit lamp exams were performed on day 0, 1 and 5. OCTs were performed at baseline and day 5.

O=C(O)CCC/C=C\C[C@@H]1[C@@H](/C=C/[C@@H](O)CCc2ccccc2)[C@H](O)C[C@@H]1O [bimatoprost acid]
reduction in IOP compared with the fellow eye (100 ng intravitreal, one of four animals (B392) responded, at 1 timepoint): 30% | IOP reduced in the treated eye compared with the fellow eye receiving PBS (200 ng intravitreal, animal B392, day 5): 52% | reduction in IOP compared with the fellow eye (200 ng intravitreal, three of four animals responded, at 1 or more timepoints): 30% | IOP response (animal B300, 100 ng and 200 ng intravitreal): did not respond to either dose | IOP lowering effect, overall conclusion (intravitreal, dose-response between the 100 ng and 200 ng doses): clear IOP lowering-effect
